These results are taken from PubChem BioAssay (NCI).

Molecules are shown by their SMILES.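 Results reflect a 48-hour exposure of cells in 96-well plates to compound at five concentrations. TGI denotes the concentration required for complete inhibition of growth.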

Holding throughout (assay): growth of human tumour cells (NCI), 48 h
Assay [1] has as its system DU-145 prostate.
The test system of assay [2] is A498 renal.
Assay [3] relates to HCT-15 colon.
Assay [4] relates to ACHN renal.
Assay [5] concerns NCI/ADR-RES ovarian.
Assay [6] relates to SNB-75 CNS.
The test system of assay [7] is UACC-257 melanoma.
Assay [8] relates to COLO 205 colon.
The subject of assay [9] is MALME-3M melanoma.
Assay [10] has as its system M14 melanoma.
The test system of assay [11] is OVCAR-3 ovarian.
Assay [12] relates to HOP-62 NSCLC.

Regarding `CN(C)Cc1cc(C(=O)/C=C/c2c(Cl)cccc2Cl)cc(CN(C)C)c1O`, the TGI in assay [1] was determined as 20.8 µM; in assay [2], 22.5 µM; in assay [3] it was 24.2 µM; in assay [4], 12.4 µM; in [5] it was 41 µM; in [6], 15.7 µM. For the same compound, the TGI in assay [7] came out at 16.9 µM; in assay [8], 7.66 µM; in [9], 15.7 µM; in assay [10] it was 18.9 µM; in assay [11] it was 23.6 µM; in assay [12], 20.2 µM.
For `CC(C)CC(=O)OC[n+]1cccc(-c2c(COC(=O)NC(C)C)c(COC(=O)NC(C)C)c3n2CCC3)c1`, the TGI in [1] is 79.7 µM; in assay [2], 59 µM; in assay [3] it was above 100 µM; in assay [4] it was above 100 µM; in assay [5] it was above 100 µM; in [6], above 100 µM. Besides, the TGI in assay [7], in [8], in assay [9], in [10], in assay [11] and in [12] was above 100 µM throughout.
Consider `C=CCNC(NCC=C)=C(C(Cl)=C(Cl)Cl)[N+](=O)[O-]`, for which the TGI in assay [1] was above 100 µM; in [2], above 100 µM; in assay [3], 32.9 µM; in assay [4], above 100 µM; in [5], above 100 µM; in assay [6], above 100 µM. Besides, the TGI in assay [7] is above 100 µM; in assay [8], 37.2 µM; in assay [9], 30.7 µM; in [10] it was above 100 µM; in assay [11], above 100 µM; in [12] it was above 100 µM.
On to `O=c1oc2ccccc2c(O)c1C(c1ccc2ccccc2c1)c1c(O)c2ccccc2oc1=O`, for which the TGI in assay [1] is above 100 µM; in [2], above 100 µM; in assay [3], 47.5 µM; in [4] it was 41.7 µM; in assay [5], 38.5 µM; in assay [6], 48.7 µM. Also, the TGI was above 100 µM in assay [7]; 78.2 µM in assay [8]; 57.5 µM in assay [9]; 73.2 µM in assay [10]; above 100 µM in assay [11]; above 100 µM in assay [12].
On to `NC(=O)CC1(O)C=CC(=O)C=C1`, for which the TGI in assay [1], in assay [2], in [3], in assay [4], in assay [5] and in assay [6] was above 100 µM in each case. Further, the TGI in assay [7], in [8], in [9], in [10], in assay [11] and in assay [12] was above 100 µM throughout.
For the compound `COc1c(C(CC(C)C)OC(C)=O)ccc2c1C(=O)OCc1cc(C)cc(O)c1O2` (configuration not stated), the TGI in assay [1] was determined as 25.8 µM; in assay [2], 34.7 µM; in assay [3] it was 23.5 µM; in [4] it was 23.2 µM; in [5], 32.2 µM; in [6] it was 42.1 µM. The TGI in [7] is 21.6 µM; in assay [8] it was 31.8 µM; in assay [9], 29.8 µM; in assay [10], 31.3 µM; in assay [11], 22.3 µM; in assay [12], 32.8 µM.
Consider `O=c1[nH]c2nccn2c(Cl)c1Br`, for which the TGI in assay [1] was above 100 µM; in assay [2], above 100 µM; in [3], 33.2 µM; in assay [4], 70.1 µM; in [5] it was 73.2 µM; in assay [6], 77.8 µM. The TGI was 45.7 µM in assay [7]; 34.4 µM in assay [8]; 38.3 µM in assay [9]; 34.5 µM in assay [10]; 35.7 µM in [11]; above 100 µM in [12].
Turning to `CC(=O)NNc1nc(C)c(C(/C=C/c2ccccc2O)=N/NC(=O)c2ccncc2)s1`, the TGI in assay [1], in assay [2], in assay [3], in [4], in assay [5] and in assay [6] was above 100 µM in each case. In addition, the TGI in [7], in [8], in assay [9], in assay [10], in assay [11] and in assay [12] was above 100 µM each time.
Turning to `CC1=CC[C@@]2(C)[C@@H]([C@@H]1C)[C@H]1CC[C@@H]3[C@@]4(C)CC[C@H](O)C(C)(C)[C@@H]4CC[C@@]3(C)[C@]1(C)C[C@@H]2O`, the TGI in assay [1] is 25.6 µM; in [2], above 39.8 µM; in [3], above 71.6 µM; in [4] it was 36 µM; in assay [5], 61.7 µM; in assay [6] it was above 100 µM. Besides, the TGI was 34.8 µM in [7]; 32.1 µM in assay [8]; above 68.7 µM in assay [9]; 32.3 µM in assay [10]; 45.5 µM in assay [11]; 38.6 µM in assay [12].
Consider `CC1=C/C(=N\N(C)C)C(C(O)(C(F)(F)F)C(F)(F)F)C(C)(C)C1` (configuration not stated), for which the TGI in assay [1], in [2], in assay [3], in assay [4], in assay [5] and in [6] was above 100 µM each time. Moreover, the TGI is above 100 µM in assay [7]; above 100 µM in assay [8]; above 100 µM in assay [9]; above 100 µM in assay [10]; 87.8 µM in assay [11]; above 100 µM in assay [12].
As for `COc1ccc(OC)c2c(=O)cc(-c3ccccc3)[nH]c12`, the TGI in [1], in [2], in assay [3], in assay [4], in [5] and in [6] was above 100 µM throughout. For the same compound, the TGI in assay [7], in assay [8], in [9], in [10], in [11] and in assay [12] was above 100 µM throughout.
As to `Cc1nn(-c2ccccc2)c2nc3c(c(C)nn3-c3ccccc3)c(-c3ccccc3Br)c12`, the TGI in assay [1], in assay [2], in assay [3], in assay [4], in assay [5] and in assay [6] was above 100 µM in each case. In addition, the TGI in assay [7], in assay [8], in assay [9], in assay [10], in assay [11] and in assay [12] was above 100 µM each time.
For the compound `CCC1=NC(N/N=C/c2ccccc2O)=N/C1=C\c1ccccc1O`, the TGI in [1] is above 64.7 µM; in assay [2] it was 85.4 µM; in [3], 12.6 µM; in assay [4], 29.5 µM; in [5] it was 24 µM; in assay [6], above 100 µM. The TGI was above 100 µM in assay [7]; above 74.8 µM in [8]; 85.4 µM in assay [9]; 51.9 µM in assay [10]; 12.6 µM in assay [11]; 39.2 µM in assay [12].
`Nc1ccccc1C(=O)NNC(=O)c1ccccc1N`: the TGI in assay [1], in assay [2], in assay [3], in assay [4], in assay [5] and in assay [6] was above 100 µM throughout. The TGI in assay [7], in assay [8], in assay [9], in assay [10], in assay [11] and in assay [12] was above 100 µM throughout.
Regarding `COc1ccc2c(c1)-c1c(c3ccccc3n1CCN1CCCCC1)CC2`, the TGI in assay [1] was above 100 µM; in assay [2], above 100 µM; in assay [3], 27.7 µM; in assay [4], above 100 µM; in [5], 34.4 µM; in [6], above 100 µM. Also, the TGI was 54.9 µM in [7]; 29.9 µM in [8]; 39.3 µM in assay [9]; above 55.8 µM in assay [10]; 26.1 µM in [11]; above 63.1 µM in assay [12].
In the case of `CC(C)[Si](OCC/C=C/C1CCC(=O)C1C(O)C1CCCCC1)(C(C)C)C(C)C` (configuration not stated), the TGI in [1] was determined as 32 µM; in assay [2], 33.9 µM; in assay [3], 30.6 µM; in [4] it was 27.9 µM; in assay [5], 27.6 µM; in [6], 30.1 µM. Also, the TGI in assay [7] was 29.5 µM; in [8], 35.5 µM; in assay [9], 29.1 µM; in [10] it was 37.8 µM; in assay [11], 30.9 µM; in [12], 31.3 µM.
For the compound `COC(=O)C(Cc1ccccc1)C(=O)NC(CNC(=O)OCc1ccccc1)C(=O)OCc1ccccc1` (configuration not stated), the TGI in assay [1] was above 100 µM; in assay [2], above 81.4 µM; in [3], above 100 µM; in assay [4], above 100 µM; in assay [5], above 100 µM; in assay [6], 64.8 µM. Besides, the TGI in [7] was 34.7 µM; in [8], 37.7 µM; in assay [9] it was 43.2 µM; in assay [10], 30.4 µM; in [11], 48.7 µM; in [12], above 100 µM.
On to `CNC(=O)C(C)NC(=O)C(Cc1ccccc1)NC(=O)OC(C)(C)C` (configuration not stated), for which the TGI in assay [1], in assay [2], in [3], in assay [4], in [5] and in [6] was above 100 µM each time. Moreover, the TGI in assay [7], in assay [8], in assay [9], in [10], in [11] and in assay [12] was above 100 µM throughout.
As for `CCCOc1ccc(/C=C/C2=[N+](CCO)CCO2)cc1`, the TGI in [1], in assay [2], in [3], in assay [4], in assay [5] and in assay [6] was above 100 µM in each case. Further, the TGI in assay [7], in [8], in assay [9], in [10], in [11] and in assay [12] was above 100 µM throughout.
In the case of `CC1(C)C[C@H]2C3=CC[C@@H]4[C@@]5(C)CC[C@H](O)C(C)(C)[C@@H]5CC[C@@]4(C)[C@]3(C)C[C@@H](O)[C@@]23C[C@@H]1OC3=O`, the TGI in [1], in assay [2], in assay [3], in [4], in assay [5] and in assay [6] was above 100 µM each time. Further, the TGI in assay [7], in assay [8], in assay [9], in assay [10], in assay [11] and in [12] was above 100 µM throughout.
As to `Cc1cc2c(cc1Cl)SC(NNC(=O)c1ccncc1)=NS2(=O)=O`, the TGI in assay [1], in assay [2], in assay [3], in [4], in [5] and in assay [6] was above 10 µM in each case. Besides, the TGI in [7], in assay [8], in assay [9], in [10], in assay [11] and in assay [12] was above 10 µM each time.
